Laboratory results from patent publication US4766119A, “Antispasmodic alkylated aminothioester derivatives” (United Pharmaceuticals, Inc., priority 1985, dated 1988).
Where a name gives a salt, the structure may show the parent alone.

Tests used:
[1] = test system: muscarinic receptors (rabbit lung tissue); assay type: binding, rabbit (New Zealand White); conditions: 0.1 nM [3H]QNB, 37° C., 60 min, pH 7.4
[2] = test system: bethanechol-contracted rabbit bladder strips; assay: relaxation of bethanechol-contracted rabbit urinary bladder strip (organ bath); assay type: cell-based; conditions: 250 μM bethanechol; for inhibition at 100 µM / inhibition at 10 µM / inhibition at 1 µM / inhibition at 0.1 µM / inhibition at 0.01 µM: Oryctolagus cuniculus, maximal relaxation = pre-bethanechol tone, read-out: % of maximum relaxation
Description: The pharmacological actions of two anti-spasmodic compounds were studied in a rabbit urinary bladder strip preparation. In general, longitudinal strips were prepared from the base of freshly isolated rabbit bladders and were then suspended under near-physiological conditions in tissue baths. The strips were attached to force transducers and both contractile and relaxant activity was measured. To measure the relaxant effects on the anti-spasmodic compounds on previously-contracted bladder strips, the strips were initially exposed to the muscarinic receptor agonist bethanechol and allowed to reach a steady level of contractile activity for 20 minutes. At this point cumulative dose-responses to the various compounds were recorded. The rabbit abdomens were opened through a vertical midline incision. The bladder and urethra were dissected free of all surrounding tissues, removed and placed in aerated (95% O2 :5% CO2) Kreb's-bicarbonate buffer (pH: 7.4) of the following composition ([…]): KCl 4.6, CaCl2.2H2 O 2.5, KH2 PO4 1.2, MgSO4.7H2 O 1.2, NaCl 118.2, NaHCO3 24.8, and glucose 10.0. Longitudinal muscle strips were prepared from the bladder base (approximately 6 mm×4 mm) and suspended in an organ bath containing Kreb's buffer (37° C.) which was continuously aerated with O2 :CO2 (95%:5%). Tissues were allowed to equilibrate to a tension of 2 gm for sixty minutes during which time buffer was replaced at 20 minute intervals. The contractile and relaxant responses of the muscle strips were measured isometrically with a Statham UC3 force-displacement transducer and recorded on an Electronics for Medicine DR8 oscillographic recorder. Bethanechol was employed as the representative cholinergic agonist and, following equilibration, was added to the baths for a final concentration of 250 μM. The tissues were allowed 20 minute to achieve a maintained level of contraction in response to bethanechol and, at this point, cumulative dose-response measurements for two anti-spasmodic compounds were started at concentrations ranging from 10^-8 M to 10^-4 M. Solutions were added in volumes up to 100 μl and were prepared fresh each day by dissolving them in distilled: deionzed water. Responses were measured 5 minutes following any particular cumulative addition and were expressed as a percentage of maximal relaxation (e.g. maximal relaxation is the baseline or pre-bethanechol level of muscle tone).
Dose responses, measured from the standard bethanechol-contracted rabbit bladder strips, at various concentrations of 2-ethyl-butyrol-thio-S-(2-diethylaminoethyl)-ester [CH3 CH2)2 --CH--CO--S--(CH2)2 --N--(CH2 CH3)2.HCl], are presented in Table I:
Dose responses, measured from the standard bethanechol-contracted rabbit bladder strips, at various concentrations of 2-propyl-pentanoyl-thiol-S-(2-diethylaminoethyl)-ester.HCl [(CH3 CH2 CH2)2 --CH--CO--S--(CH2)2 --N--(CH2 CH3)2.HCl] are presented in Table II: […]

[3] = test system: smooth muscle (gastrointestinal tract, biliary tract, ureter and uterus); conditions: cited from earlier work
[4] = test system: salivary and sweat glands, GI glands, the eye or the cardiovascular system; conditions: cited from earlier work

| Structure (SMILES) | % inhibition of 3H[QNB] binding (at a concentration of 1.0 × 10^-5 M) [1] [%] | Decrease in force of contraction of rabbit bladder strip ([2]; 10^-4 moles/liter) [gm] | Increase in length of rabbit bladder strip ([2]; 10^-4 moles/liter) [cm] | Decrease in force of contraction of rabbit bladder strip ([2]; 10^-5 moles/liter) [gm] | Increase in length of rabbit bladder strip ([2]; 10^-5 moles/liter) [cm] | Decrease in force of contraction of rabbit bladder strip ([2]; 10^-6 moles/liter) [gm] | Increase in length of rabbit bladder strip ([2]; 10^-6 moles/liter) [cm] | Decrease in force of contraction of rabbit bladder strip ([2]; 10^-7 moles/liter) [gm] | Increase in length of rabbit bladder strip ([2]; 10^-7 moles/liter) [cm] | Decrease in force of contraction of rabbit bladder strip ([2]; 10^-8 moles/liter) [gm] | Increase in length of rabbit bladder strip ([2]; 10^-8 moles/liter) [cm] | inhibition at 100 µM ([2]; 10^-4 moles/liter) [%] | inhibition at 10 µM ([2]; 10^-5 moles/liter) [%] | inhibition at 1 µM ([2]; 10^-6 moles/liter) [%] | inhibition at 0.1 µM ([2]; 10^-7 moles/liter) [%] | inhibition at 0.01 µM ([2]; 10^-8 moles/liter) [%] | decrease of spasm [3] | characteristic atropinic side effects [4] |
| --- | --- | --- | --- | --- | --- | --- | --- | --- | --- | --- | --- | --- | --- | --- | --- | --- | --- | --- |
| CCC(CC)C(=O)SCCN(CC)CC [2-ethyl-butyryl-thio-S-(2-diethylaminoethyl)ester.HCl] | 64 | 0.54 | 1.3 | 0.29 | 0.7 | 0.25 | 0.6 | 0.17 | 0.4 | 0.13 | 0.3 | 37 | 20 | 17.1 | 11.4 | 8.6 | – | – |
| CCCC(CCC)C(=O)SCCN(CC)CC [2-propyl-pentanoyl-thio-S-(2-diethylaminoethyl)-ester.HCl] | 95 | 0.81 | 2.9 | 0.31 | 1.1 | 0.0 | 0.0 | 0.0 | 0.0 | 0.0 | 0.0 | 100 | 100 | 0 | 0 | 0 | – | – |
| CCN(CC)CCSC(=O)C(c1ccccc1)c1ccccc1 [Thiphenamil hydrochloride] | – | – | – | – | – | – | – | – | – | – | – | – | – | – | – | – | decrease spasm of the gastrointestinal tract, biliary tract, ureter and uterus | without producing characteristic atropinic side effects on salivary and sweat glands, GI glands, the eye or the cardiovascular system |
